Data reported in ChEMBL document CHEMBL5212743, “Selectivity Literature for EUbOPEN Chemogenomics Library wave 3” (2023).
pKd, pKi: −log10 of the molar value.

Key:
[1] = molecular target: Vascular endothelial growth factor receptor 1 (Homo sapiens, UniProt P17948); assay: Selectivity interaction (KinomeScan (DiscoverX, competition-binding assay)) EUB0000637a FLT1
[2] = molecular target: Dual specificity protein kinase CLK1 (Homo sapiens, UniProt P49759); assay: Selectivity interaction (KinomeScan (DiscoverX, competition-binding assay)) EUB0000637a CLK1
[3] = molecular target: MAP kinase-interacting serine/threonine-protein kinase 2 (Homo sapiens, UniProt Q9HBH9); assay: Selectivity interaction (KinomeScan (DiscoverX, competition-binding assay)) EUB0000637a MKNK2
[4] = molecular target: T1, Sodium-dependent dopamine transporter (Homo sapiens, UniProt Q01959); assay: (§1) Selectivity interaction (Eurofins-Panlabs radioligand binding assay) EUB0000716a SLC6A3
[5] = molecular target: cAMP-dependent protein kinase catalytic subunit beta (Homo sapiens) (UniProt P22694); assay: Selectivity interaction (KinomeScan (DiscoverX)) EUB0000716a PRKACB; settings: at 100 nM
[6] = molecular target: T1, Sodium-dependent dopamine transporter; assay: as §1; remark: listed apart in the source
[7] = molecular target: T2, Serine/threonine-protein kinase LATS2 (Homo sapiens) (UniProt Q9NRM7); assay: Selectivity interaction (KinomeScan (DiscoverX)) EUB0000716a LATS2; settings: at 100 nM
T2 sequence (whole entry): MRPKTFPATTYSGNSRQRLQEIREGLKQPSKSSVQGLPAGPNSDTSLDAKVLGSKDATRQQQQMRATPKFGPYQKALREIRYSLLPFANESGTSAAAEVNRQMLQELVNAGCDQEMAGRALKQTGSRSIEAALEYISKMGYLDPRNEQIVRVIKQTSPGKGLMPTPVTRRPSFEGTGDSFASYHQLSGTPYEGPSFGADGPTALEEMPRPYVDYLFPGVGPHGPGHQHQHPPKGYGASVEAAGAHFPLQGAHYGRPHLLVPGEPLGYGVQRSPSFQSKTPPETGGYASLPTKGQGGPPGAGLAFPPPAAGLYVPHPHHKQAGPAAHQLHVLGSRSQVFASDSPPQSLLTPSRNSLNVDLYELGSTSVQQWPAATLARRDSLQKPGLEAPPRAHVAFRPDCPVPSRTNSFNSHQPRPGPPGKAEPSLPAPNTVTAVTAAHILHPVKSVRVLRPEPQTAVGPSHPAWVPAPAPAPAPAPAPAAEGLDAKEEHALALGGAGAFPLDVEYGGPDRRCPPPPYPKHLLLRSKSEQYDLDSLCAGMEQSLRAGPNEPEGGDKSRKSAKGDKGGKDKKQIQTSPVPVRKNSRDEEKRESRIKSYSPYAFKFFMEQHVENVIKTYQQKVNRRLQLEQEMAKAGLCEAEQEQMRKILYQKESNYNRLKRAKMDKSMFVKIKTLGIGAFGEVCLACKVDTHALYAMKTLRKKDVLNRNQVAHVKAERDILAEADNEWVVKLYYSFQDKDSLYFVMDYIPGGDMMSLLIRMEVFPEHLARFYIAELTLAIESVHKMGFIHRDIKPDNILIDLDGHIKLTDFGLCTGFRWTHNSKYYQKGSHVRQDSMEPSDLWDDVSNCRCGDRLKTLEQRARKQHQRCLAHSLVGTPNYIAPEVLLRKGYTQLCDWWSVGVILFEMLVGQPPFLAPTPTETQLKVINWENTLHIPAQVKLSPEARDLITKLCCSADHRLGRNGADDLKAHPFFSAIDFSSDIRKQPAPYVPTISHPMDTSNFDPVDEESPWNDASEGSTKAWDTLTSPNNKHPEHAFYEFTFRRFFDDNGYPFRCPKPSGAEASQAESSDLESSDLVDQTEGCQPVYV

[8] = molecular target: cGMP-dependent protein kinase 1 (Homo sapiens) (UniProt Q13976); assay: Selectivity interaction (KinomeScan (DiscoverX)) EUB0000716a PRKG1; settings: at 100 nM
[9] = molecular target: T3, Serine/threonine-protein kinase LATS1 (Homo sapiens) (UniProt O95835); assay: Selectivity interaction (KinomeScan (DiscoverX)) EUB0000716a LATS1; settings: at 100 nM
T3 sequence (whole entry): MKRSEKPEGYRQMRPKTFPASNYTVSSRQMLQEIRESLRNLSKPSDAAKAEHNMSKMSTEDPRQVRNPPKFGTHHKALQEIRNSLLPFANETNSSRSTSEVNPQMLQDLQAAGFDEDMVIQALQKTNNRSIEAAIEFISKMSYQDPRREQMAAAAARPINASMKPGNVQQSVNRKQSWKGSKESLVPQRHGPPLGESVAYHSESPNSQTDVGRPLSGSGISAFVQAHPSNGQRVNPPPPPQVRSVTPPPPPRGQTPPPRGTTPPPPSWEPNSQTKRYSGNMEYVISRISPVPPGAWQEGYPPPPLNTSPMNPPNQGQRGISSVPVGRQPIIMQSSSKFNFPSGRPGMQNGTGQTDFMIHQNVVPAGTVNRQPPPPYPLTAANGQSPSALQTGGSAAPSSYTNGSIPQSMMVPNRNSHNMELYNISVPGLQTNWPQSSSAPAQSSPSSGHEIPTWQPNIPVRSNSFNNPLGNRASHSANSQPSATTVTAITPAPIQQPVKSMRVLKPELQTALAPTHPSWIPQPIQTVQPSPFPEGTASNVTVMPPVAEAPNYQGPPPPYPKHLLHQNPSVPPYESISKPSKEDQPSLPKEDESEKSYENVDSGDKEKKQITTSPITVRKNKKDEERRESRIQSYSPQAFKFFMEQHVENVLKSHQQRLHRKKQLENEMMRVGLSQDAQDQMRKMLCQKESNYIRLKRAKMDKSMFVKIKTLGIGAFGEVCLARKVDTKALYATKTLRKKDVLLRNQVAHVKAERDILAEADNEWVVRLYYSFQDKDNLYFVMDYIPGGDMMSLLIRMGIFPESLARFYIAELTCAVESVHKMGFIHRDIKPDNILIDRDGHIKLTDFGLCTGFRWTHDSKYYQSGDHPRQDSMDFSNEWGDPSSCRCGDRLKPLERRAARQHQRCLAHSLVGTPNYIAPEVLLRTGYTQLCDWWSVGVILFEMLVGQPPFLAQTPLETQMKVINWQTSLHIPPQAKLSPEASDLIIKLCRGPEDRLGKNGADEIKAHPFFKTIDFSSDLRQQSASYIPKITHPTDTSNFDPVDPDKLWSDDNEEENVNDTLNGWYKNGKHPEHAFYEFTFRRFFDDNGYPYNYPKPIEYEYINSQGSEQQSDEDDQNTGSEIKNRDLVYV

[10] = molecular target: cAMP-dependent protein kinase catalytic subunit alpha (Homo sapiens, UniProt P17612); assay: Selectivity interaction (KinomeScan (DiscoverX)) EUB0000716a PRKACA; settings: at 100 nM

T1 sequence (Q01959 whole entry): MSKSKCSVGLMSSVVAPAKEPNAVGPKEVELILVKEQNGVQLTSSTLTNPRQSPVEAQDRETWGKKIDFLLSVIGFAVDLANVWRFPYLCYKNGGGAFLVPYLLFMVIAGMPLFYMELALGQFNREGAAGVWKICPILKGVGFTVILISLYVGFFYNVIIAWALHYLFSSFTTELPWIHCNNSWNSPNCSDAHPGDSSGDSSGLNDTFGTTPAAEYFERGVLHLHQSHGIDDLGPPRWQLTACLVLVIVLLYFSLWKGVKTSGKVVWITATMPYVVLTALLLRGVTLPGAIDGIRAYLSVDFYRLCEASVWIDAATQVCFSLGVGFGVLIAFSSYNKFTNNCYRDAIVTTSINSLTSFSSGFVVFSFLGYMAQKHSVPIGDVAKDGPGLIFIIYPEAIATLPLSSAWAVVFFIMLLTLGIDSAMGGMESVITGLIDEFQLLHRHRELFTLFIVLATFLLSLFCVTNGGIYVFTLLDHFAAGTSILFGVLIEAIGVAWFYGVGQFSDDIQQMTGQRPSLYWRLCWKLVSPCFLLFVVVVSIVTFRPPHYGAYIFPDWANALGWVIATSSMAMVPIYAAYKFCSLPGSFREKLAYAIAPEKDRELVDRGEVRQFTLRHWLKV
Vascular endothelial growth factor receptor 1, sequence (P17948 whole entry): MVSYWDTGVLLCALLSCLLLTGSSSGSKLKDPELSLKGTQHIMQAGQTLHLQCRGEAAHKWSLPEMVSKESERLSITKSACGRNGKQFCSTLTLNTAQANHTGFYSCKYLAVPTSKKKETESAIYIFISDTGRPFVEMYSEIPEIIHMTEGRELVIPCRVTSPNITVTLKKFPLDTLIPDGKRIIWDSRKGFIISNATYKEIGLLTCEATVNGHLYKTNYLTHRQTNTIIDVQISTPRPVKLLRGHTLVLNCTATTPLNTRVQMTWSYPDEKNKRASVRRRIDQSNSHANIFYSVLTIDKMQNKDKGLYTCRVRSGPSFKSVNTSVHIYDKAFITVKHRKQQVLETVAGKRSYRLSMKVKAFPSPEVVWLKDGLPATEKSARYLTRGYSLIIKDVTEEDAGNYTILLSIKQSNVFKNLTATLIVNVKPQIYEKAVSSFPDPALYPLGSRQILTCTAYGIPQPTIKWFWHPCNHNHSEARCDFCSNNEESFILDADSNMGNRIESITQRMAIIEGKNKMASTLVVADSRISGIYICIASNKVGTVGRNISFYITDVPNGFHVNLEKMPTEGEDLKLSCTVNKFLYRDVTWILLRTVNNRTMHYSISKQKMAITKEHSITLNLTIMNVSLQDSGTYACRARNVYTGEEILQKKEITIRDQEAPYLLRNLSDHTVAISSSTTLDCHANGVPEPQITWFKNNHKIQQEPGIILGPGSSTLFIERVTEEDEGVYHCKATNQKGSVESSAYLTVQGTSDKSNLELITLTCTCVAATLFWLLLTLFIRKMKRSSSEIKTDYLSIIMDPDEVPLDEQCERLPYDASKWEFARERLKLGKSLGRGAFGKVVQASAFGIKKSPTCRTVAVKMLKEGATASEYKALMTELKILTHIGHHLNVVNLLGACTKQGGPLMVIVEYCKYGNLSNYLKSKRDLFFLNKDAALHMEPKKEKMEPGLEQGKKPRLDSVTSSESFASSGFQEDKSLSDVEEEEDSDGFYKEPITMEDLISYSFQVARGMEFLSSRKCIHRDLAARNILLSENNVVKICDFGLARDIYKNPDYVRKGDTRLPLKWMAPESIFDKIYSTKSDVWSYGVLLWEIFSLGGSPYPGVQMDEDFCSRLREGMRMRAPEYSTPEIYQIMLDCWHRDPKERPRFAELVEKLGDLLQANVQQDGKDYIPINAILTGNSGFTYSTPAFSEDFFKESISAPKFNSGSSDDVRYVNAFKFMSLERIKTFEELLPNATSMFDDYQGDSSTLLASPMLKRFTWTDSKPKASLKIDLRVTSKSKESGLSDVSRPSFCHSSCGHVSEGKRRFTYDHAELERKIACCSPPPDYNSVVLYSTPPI
Dual specificity protein kinase CLK1, sequence (P49759 whole entry): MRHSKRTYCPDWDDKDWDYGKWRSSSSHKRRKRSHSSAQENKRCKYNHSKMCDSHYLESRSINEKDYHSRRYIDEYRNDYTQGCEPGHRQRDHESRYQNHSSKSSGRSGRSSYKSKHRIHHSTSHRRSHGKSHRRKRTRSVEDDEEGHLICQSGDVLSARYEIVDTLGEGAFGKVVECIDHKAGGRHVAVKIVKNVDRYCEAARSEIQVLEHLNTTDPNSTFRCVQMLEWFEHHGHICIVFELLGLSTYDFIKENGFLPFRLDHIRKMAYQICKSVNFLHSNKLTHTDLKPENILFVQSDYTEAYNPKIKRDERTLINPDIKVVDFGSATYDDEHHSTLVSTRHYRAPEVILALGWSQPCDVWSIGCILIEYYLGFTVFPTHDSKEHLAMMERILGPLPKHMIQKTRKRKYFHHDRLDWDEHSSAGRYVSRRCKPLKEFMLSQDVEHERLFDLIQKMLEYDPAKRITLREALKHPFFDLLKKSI
cGMP-dependent protein kinase 1 (Homo sapiens), sequence (Q13976 whole entry): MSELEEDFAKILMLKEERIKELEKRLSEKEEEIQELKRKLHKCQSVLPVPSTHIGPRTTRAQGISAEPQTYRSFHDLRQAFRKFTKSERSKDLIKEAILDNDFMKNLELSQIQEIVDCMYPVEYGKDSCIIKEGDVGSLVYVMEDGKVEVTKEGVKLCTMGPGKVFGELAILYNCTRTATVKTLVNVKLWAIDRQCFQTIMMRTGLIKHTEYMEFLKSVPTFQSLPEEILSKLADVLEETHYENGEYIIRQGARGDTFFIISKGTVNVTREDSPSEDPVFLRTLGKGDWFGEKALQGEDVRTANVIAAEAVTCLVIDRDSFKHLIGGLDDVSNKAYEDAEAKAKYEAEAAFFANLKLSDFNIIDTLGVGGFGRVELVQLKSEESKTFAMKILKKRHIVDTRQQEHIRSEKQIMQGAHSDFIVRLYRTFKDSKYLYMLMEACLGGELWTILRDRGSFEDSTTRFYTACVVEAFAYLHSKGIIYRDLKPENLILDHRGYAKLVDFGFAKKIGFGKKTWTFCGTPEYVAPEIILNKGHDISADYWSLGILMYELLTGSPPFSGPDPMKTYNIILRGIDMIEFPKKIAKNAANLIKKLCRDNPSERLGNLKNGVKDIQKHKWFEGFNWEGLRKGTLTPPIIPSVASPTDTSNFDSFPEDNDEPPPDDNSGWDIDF
MAP kinase-interacting serine/threonine-protein kinase 2, sequence (Q9HBH9 whole entry): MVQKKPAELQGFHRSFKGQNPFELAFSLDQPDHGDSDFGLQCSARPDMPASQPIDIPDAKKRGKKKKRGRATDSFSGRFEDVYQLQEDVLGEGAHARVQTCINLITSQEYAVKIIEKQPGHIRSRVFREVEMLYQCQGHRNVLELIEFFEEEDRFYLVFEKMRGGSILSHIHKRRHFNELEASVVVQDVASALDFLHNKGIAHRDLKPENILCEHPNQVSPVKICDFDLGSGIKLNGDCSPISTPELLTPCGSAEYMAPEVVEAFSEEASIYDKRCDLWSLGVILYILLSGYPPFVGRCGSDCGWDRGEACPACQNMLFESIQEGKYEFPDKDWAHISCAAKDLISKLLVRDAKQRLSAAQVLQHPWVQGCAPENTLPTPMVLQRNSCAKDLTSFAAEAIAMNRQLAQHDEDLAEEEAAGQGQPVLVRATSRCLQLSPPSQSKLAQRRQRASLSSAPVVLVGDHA

pKd [1]	pKd [2]	pKd [3]	pKi [4]	% of control [5] [%]	pKi [6]	% of control [7] [%]	% of control [8] [%]	% of control [9] [%]	% of control [10] [%]	SMILES
6.68	6.51	6.48								NC(=O)c1ccc2nc(-c3ccc(C4(N)CCC4)cc3)c(-c3ccccc3)n2n1 [BAY-1125976]
			7.57	36	7.41	0.7	49	42	28	Cc1c[nH]c2nccc(Oc3c(F)cc(Nc4cc(Cl)nc(N)n4)cc3F)c12 [BAY-549]
